# Assay results: paper PMC6348381, “Discovery of an MLLT1/3 YEATS Domain Chemical Probe” (Angewandte Chemie (International Ed. in English), 2018)
# Assays:
# [1] = target: T1, MLLT1 (Homo sapiens, UniProt Q03111); test: NanoBRET assay, full length MLLT1:Histone 3.3 in HEK293 cells; assay type: cell-based; conditions: relative to the DMSO control
# T1 construct: We also developed a full length MLLT1:Histone 3.3 (H3.3) NanoBRET assay; host or cells: HEK293
# Description: Compounds were then added directly to media (in the presence of SAHA 2.5 M) at final concentrations 0.01-30 μM or an equivalent amount of DMSO as a vehicle control, and the plates were incubated for 24 h at 37 °C in the presence
# [2] = target: T2, MLLT3 (Homo sapiens, UniProt P42568); test: NanoBRET assay, full-length MLLT3-NanoLuc / histone H3.3-HaloTag in HEK293 cells; assay type: cell-based; conditions: 24 h, representative assay
# T2 construct: in full length MLLT3 N-terminal NanoLuc, Histone; host or cells: HEK293
# T2 sequence (P42568 1-568): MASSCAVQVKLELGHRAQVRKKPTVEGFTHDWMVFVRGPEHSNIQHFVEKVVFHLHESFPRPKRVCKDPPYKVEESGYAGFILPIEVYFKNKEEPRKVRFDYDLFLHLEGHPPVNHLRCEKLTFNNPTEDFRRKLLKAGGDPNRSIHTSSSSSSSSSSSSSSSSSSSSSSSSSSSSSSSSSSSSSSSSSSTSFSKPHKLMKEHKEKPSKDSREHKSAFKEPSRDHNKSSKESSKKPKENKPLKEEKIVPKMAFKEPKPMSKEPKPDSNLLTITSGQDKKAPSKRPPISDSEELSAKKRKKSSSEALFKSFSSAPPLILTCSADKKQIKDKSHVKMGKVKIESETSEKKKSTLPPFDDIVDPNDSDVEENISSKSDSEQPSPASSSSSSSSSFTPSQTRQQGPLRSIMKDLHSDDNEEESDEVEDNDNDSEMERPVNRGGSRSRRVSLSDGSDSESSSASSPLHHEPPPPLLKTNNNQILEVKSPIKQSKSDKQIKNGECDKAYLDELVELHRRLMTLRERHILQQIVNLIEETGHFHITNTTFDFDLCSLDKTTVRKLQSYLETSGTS
# Description: II.V NanoLuciferase Bioluminescent Resonance Energy Transfer (NanoBRET) Assay[2]
# HEK293 cells ([…]) were plated in each well of a 6-well plate after 6 h cells were co-transfected with Histone H3.3-HaloTag (NM_002107) and a NanoLuciferase fusion of MLLT1 or MLLT3 (WT sequences from Promega HaloTag® human ORF in pFN21A) at a 1:500 and 1:10 (NanoLuc® to HaloTag®) ratio respectively with FuGENE HD transfection regent. Sixteen hours post-transfection, cells were collected and exchanged into media containing phenol red-free DMEM and 4% FBS in the absence (control sample) or the presence (experimental sample) of 100 nM NanoBRET 618 fluorescent ligand (Promega).
# Cell density was adjusted to 2 x 10^5 cells/mL and then seeded 100 µL/well in a white 96-well plate (Corning Costar #3917). Compounds were then added directly to media (in the presence of SAHA 2.5 µM) at final concentrations 0.01-30 μM or an equivalent amount of DMSO as a vehicle control, and the plates were incubated for 24 h at 37 °C in the presence […]
# NanoBRET Nano-Glo substrate (Promega) was added to both control and experimental samples at a final concentration of 10 µM. Readings were performed within 5 minutes using a ClarioSTAR (BMG labtech) equipped with LP 480 and 610 nm filters. A corrected BRET ratio was calculated and is defined as the ratio of the emission at 610 nm/[…] for experimental samples minus the emission at 6 10 nm/640 nm for control samples (not incubated with NanoBRET fluorescent ligand). BRET ratios are expressed as milliBRET units (mBU), where 1 mBU corresponds to the corrected BRET ratio multiplied by 1000.
# 3.3 C-terminal HaloTag in HEK293 cells. Treatment with SAHA (2.5 µM) alone increases MLLT3- […]
# dependent manner. Mean±SD of BRET ratio (mBU), n=4 technical replicates.
# (also on this page, place not known: 5) -well H3.3 -HaloTag pFN21A ) ( NanoLuc® H aloTag®) post -transfection, red -free Nano -Glo 10 5 6 10 6 10 l igand). cells . […]
# T1 sequence (Q03111 whole entry): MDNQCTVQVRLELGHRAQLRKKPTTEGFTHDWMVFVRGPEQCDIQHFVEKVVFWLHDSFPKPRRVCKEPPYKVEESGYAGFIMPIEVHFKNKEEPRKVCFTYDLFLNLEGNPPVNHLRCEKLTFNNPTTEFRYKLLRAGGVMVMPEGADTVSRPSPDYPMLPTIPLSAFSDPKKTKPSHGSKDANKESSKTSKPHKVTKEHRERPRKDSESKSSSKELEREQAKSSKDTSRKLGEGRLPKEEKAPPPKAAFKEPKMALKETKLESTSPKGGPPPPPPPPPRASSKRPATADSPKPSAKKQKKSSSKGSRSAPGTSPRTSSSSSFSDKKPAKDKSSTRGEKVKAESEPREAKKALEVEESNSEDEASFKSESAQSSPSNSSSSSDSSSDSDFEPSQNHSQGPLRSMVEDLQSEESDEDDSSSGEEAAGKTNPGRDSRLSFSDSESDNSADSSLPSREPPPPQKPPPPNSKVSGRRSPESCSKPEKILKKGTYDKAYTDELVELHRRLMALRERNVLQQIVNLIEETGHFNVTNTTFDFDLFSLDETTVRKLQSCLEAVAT
structure (smiles),measurement,setting,value
"O=C(CCCCCCC(=O)Nc1ccccc1)NO [SAHA, suberoylanilide hydroxamic acid, reference compound]","BRET activity (mBU), MLLT1:H3.3 NanoBRET",[1],significant increase in BRET activity
same,MLLT3-Histone 3.3 interaction (mBU),[2],increases
